ChEMBL document CHEMBL3864167, “Structure-Activity Relationship, Drug Metabolism and Pharmacokinetics Properties Optimization, and in Vivo Studies of New Brain Penetrant Triple T-Type Calcium Channel Blockers” (J Med Chem, 2016)
Converted amounts (≈) assume the structure as drawn.

Columns and labels:
[1] = Intrinsic clearance in human liver microsomes at 1 uM up to 15 mins in presence of NADPH by LC-MS-MS analysis; type: ADME; conditions: read-out: CLH
[2] = molecular target: Voltage-dependent T-type calcium channel subunit alpha-1H (Homo sapiens, UniProt O95180); assay: Channel blocking activity at recombinant human CaV 3.2 channel expressed in HEK293 cells assessed as inhibition of Ca2+ flux preincubated for 3 mins followed by CaCl2 addition by fluo-4 dye-based FLIPR assay; type: cell-based
[3] = molecular target: Voltage-dependent T-type calcium channel subunit alpha-1G (Homo sapiens, UniProt O43497); assay: Channel blocking activity at recombinant human CaV 3.1 channel expressed in HEK293 cells assessed as inhibition of Ca2+ flux preincubated for 3 mins followed by CaCl2 addition by fluo-4 dye-based FLIPR assay; type: cell-based
[4] = molecular target: Voltage-dependent T-type calcium channel subunit alpha-1I (Homo sapiens, UniProt Q9P0X4); assay: Channel blocking activity at recombinant human CaV 3.3 channel expressed in HEK293 cells assessed as inhibition of Ca2+ flux preincubated for 3 mins followed by CaCl2 addition by fluo-4 dye-based FLIPR assay; type: cell-based
[5] = Intrinsic clearance in Wistar rat liver microsomes at 1 uM up to 15 mins in presence of NADPH by LC-MS-MS analysis; type: ADME; conditions: read-out: CLH
[6] = Solubility of the compound at pH 7; type: physicochemical; conditions: buffer
[7] = test system: MDR1; assay: Efflux ratio for apparent permeability in MDCK1 cells expressing MDR1; type: ADME, cell-based, Canis lupus familiaris; conditions: dog, MDCK-MDR1
[8] = Lipophilicity, logD of compund at pH 7.4; type: physicochemical; conditions: buffer
[9] = test system: MDR1; assay: Apparent permeability from basolateral side to apical side in MDCK1 cells expressing MDR1; type: ADME, cell-based, Canis lupus familiaris; conditions: dog, MDCK-MDR1
[10] = Dissociation constant, pKa of compound; type: physicochemical
[11] = test system: MDR1; assay: Apparent permeability from apical side to basolateral side in MDCK1 cells expressing MDR1; type: ADME, cell-based, Canis lupus familiaris; conditions: dog, MDCK-MDR1
[12] = Solubility of the compound in fed state simulated intestinal fluid; type: ADME; conditions: fed state simulated intestinal fluid (FeSSIF)
[13] = Solubility of the compound in fast state simulated intestinal fluid; type: ADME; conditions: fasted state simulated intestinal fluid (FaSSIF)

Chain of Voltage-dependent T-type calcium channel subunit alpha-1H (O95180 whole entry): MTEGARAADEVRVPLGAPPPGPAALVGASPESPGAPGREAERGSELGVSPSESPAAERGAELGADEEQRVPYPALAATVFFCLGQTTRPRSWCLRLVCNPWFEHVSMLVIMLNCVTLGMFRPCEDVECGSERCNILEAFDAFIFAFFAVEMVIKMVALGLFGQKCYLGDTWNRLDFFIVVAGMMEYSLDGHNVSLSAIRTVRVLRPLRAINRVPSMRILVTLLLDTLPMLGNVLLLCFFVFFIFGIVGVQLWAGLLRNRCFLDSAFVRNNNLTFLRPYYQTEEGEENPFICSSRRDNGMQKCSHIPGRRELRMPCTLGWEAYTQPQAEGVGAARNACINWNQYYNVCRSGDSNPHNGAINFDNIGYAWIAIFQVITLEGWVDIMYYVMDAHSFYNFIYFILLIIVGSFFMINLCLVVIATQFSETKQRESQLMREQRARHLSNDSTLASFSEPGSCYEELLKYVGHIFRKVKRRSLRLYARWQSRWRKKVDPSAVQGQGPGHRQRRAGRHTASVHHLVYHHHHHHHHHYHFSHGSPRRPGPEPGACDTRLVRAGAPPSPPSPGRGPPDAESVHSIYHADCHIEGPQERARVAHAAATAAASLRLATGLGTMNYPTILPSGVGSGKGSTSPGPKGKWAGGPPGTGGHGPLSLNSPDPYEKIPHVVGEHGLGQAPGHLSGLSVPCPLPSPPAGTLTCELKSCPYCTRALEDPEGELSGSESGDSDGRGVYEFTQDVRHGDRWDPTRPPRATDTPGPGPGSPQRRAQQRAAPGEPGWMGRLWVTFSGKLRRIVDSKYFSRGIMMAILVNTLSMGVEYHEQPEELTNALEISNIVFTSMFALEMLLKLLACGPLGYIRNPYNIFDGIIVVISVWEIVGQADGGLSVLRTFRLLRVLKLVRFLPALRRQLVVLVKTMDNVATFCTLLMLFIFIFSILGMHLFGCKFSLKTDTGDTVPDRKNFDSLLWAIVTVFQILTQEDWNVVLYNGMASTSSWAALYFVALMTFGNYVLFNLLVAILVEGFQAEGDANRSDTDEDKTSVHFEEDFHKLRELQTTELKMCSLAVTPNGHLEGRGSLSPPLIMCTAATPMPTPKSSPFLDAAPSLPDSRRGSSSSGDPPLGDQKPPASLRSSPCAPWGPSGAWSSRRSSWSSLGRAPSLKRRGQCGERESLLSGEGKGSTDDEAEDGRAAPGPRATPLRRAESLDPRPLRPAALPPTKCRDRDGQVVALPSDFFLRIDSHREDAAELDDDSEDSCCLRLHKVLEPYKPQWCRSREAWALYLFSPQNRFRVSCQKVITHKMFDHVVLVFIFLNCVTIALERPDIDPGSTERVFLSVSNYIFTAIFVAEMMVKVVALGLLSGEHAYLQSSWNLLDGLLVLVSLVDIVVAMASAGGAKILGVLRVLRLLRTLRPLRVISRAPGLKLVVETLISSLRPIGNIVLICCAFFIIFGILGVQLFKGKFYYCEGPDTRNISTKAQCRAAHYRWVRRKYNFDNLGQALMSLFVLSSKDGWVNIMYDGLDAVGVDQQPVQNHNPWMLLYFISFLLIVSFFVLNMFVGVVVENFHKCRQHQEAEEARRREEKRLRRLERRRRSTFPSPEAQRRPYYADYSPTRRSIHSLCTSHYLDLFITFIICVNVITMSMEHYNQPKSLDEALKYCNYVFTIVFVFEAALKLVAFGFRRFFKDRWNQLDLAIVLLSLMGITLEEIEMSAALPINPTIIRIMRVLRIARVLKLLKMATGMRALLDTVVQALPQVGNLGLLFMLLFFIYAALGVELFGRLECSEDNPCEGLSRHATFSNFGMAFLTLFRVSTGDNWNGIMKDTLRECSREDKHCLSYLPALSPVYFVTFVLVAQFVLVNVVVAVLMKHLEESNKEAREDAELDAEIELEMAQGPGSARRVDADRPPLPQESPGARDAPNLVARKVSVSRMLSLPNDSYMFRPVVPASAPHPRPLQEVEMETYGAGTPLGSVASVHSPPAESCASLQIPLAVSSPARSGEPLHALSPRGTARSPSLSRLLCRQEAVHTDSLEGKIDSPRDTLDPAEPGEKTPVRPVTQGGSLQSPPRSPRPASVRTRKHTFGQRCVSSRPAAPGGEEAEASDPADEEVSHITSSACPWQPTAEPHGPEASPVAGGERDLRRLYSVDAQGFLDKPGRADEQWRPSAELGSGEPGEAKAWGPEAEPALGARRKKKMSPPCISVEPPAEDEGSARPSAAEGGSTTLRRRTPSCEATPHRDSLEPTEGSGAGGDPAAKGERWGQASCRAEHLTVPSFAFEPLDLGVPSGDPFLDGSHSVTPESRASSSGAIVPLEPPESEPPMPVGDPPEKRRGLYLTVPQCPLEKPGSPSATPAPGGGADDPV
Chain of Voltage-dependent T-type calcium channel subunit alpha-1I (Q9P0X4 whole entry): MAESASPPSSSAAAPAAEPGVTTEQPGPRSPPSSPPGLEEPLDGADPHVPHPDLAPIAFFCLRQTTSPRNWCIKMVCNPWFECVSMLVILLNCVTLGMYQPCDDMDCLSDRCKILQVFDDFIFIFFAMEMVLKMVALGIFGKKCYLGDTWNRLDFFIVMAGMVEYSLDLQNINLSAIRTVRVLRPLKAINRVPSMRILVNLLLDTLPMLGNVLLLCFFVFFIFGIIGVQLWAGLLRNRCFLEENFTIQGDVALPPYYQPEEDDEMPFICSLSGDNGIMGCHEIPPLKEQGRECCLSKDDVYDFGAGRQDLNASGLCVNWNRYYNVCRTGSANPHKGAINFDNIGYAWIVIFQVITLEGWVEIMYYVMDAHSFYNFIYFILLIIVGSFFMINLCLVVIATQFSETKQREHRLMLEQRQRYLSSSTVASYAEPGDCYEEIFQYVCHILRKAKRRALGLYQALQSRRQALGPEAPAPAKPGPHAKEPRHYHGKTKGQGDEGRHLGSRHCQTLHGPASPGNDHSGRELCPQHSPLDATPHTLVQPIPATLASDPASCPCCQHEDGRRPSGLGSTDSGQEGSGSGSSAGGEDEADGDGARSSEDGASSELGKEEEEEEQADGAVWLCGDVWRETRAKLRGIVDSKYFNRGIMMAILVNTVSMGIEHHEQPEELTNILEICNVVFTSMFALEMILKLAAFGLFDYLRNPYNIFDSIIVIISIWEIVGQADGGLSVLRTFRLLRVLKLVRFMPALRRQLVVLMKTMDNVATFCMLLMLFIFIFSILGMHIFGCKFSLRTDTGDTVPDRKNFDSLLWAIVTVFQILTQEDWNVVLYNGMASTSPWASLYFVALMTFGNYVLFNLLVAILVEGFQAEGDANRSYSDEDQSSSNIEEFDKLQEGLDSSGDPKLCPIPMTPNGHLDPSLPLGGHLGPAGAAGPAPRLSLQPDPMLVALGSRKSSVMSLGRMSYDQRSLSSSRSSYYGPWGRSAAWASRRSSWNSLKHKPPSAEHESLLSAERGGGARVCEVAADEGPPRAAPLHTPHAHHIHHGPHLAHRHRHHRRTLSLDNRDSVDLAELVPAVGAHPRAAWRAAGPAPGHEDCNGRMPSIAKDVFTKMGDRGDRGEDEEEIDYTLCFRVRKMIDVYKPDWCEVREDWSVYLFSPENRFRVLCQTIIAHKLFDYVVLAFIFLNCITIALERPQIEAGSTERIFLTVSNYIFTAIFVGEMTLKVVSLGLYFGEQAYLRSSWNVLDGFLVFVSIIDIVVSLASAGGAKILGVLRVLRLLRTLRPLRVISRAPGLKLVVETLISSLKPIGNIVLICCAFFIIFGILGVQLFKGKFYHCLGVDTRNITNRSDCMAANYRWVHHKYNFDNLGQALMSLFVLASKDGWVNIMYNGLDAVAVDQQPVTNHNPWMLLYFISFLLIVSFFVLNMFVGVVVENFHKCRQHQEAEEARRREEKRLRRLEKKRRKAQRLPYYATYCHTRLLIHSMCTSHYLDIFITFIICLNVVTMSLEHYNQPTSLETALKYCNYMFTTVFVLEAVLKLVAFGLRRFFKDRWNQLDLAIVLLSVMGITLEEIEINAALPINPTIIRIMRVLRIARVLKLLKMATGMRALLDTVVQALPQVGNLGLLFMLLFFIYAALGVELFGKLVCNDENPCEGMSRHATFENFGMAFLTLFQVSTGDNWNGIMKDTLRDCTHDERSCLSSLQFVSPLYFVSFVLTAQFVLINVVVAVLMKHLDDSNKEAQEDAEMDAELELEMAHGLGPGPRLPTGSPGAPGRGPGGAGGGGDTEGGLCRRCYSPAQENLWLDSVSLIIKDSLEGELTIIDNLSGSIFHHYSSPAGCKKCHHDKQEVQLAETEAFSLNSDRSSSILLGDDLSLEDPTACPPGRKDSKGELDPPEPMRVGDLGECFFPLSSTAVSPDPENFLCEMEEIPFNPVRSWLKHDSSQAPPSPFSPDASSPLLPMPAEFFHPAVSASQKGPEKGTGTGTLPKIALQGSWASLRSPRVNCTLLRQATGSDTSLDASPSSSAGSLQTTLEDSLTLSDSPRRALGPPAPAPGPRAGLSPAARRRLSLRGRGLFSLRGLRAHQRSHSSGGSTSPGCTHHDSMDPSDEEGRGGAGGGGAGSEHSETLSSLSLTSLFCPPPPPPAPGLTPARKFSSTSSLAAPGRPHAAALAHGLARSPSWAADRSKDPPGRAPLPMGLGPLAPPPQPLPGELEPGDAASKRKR

| microsomal CLint at 1 µM [1] [µL/min/mg] | IC50 [2] [nM] | IC50 [3] [nM] | IC50 [4] [nM] | microsomal CLint at 1 µM [5] [µL/min/mg] | solubility [6] [µg/mL] | efflux ratio [7] | logD [8] | Papp B→A [9] [×10⁻⁶ cm/s] | pKa [10] | Papp A→B [11] [×10⁻⁶ cm/s] | solubility [12] [µg/mL] | solubility [13] [µg/mL] | Structure (SMILES) |
| --- | --- | --- | --- | --- | --- | --- | --- | --- | --- | --- | --- | --- | --- |
| 247 | 44 | 37 | 10 | 1180 | – | – | – | – | – | – | – | – | C[C@@H]1CN(Cc2ccc(C(F)(F)F)o2)c2cnccc2[C@H](C)N1C(=O)NCc1ccccc1 (racemic) |
| > 1250 | 58 | 26 | 9 | – | 21 to 39 (≈ 55.3 to 103 µM) | – | – | – | – | – | – | – | C[C@@H]1CN(Cc2ccccc2)c2ccccc2[C@H](C)N1C(=O)N1CCOCC1 (racemic) |
| 189 | 48 | 79 | 12 | 1140 | – | – | – | – | – | – | – | – | COc1ccc(CNC(=O)N2[C@H](C)CN(Cc3ccccc3)c3cnccc3[C@@H]2C)cc1 (racemic) |
| 179 | 95 | 47 | 31 | > 1250 | – | – | – | – | – | – | – | – | C[C@@H]1CN(Cc2ccccc2F)c2cnccc2[C@H](C)N1C(=O)NCc1ccccc1 (racemic) |
| 30 | 604 | 613 | 251 | 496 | 309 (≈ 841 µM) | 140 | 3.2 | 56 | 4.4 to 6.3 | 0.4 | – | – | CC(C)CCN1C[C@@H](C)N(C(=O)Nc2cccnc2)[C@@H](C)c2ccncc21 (racemic) |
| > 1250 | 61 | 42 | 14 | – | 21 to 39 (≈ 54.3 to 101 µM) | – | – | – | – | – | – | – | C[C@@H]1CN(Cc2ccccc2)c2ccccc2[C@H](C)N1C(=O)Nc1cccnc1 (racemic) |
| 185 | 72 | 140 | 9 | – | – | 2.3 | – | 61 | 4.2 | 26.3 | – | – | C[C@@H]1CN(Cc2ccccc2)c2cncc(F)c2[C@H](C)N1C(=O)NCc1ccccc1 (racemic) |
| 1230 | 91 | 108 | 23 | – | 81 (≈ 204 µM) | – | – | – | – | – | – | – | C[C@@H]1CN(CCOC(C)(C)C)c2ccccc2[C@H](C)N1C(=O)Nc1cccnc1 (racemic) |
| 93 | 860 | 360 | 306 | 562 | – | – | – | – | – | – | – | – | C[C@@H]1CN(Cc2ccccc2)c2cnccc2[C@H](C)N1C(=O)Nc1cccnc1 (racemic) |
| 59 | 815 | 441 | 148 | 855 | – | – | – | – | – | – | – | – | [2H]C([2H])(c1ccccc1)N1C[C@@H](C)N(C(=O)Nc2cccnc2)[C@@H](C)c2ccncc21 (racemic) |
| 539 | 61 | 26 | 12 | – | 148 (≈ 405 µM) | – | – | – | – | – | – | – | C[C@@H]1CN(Cc2ccccc2)c2ccccc2[C@H](C)N1C(=O)NC1COC1 (racemic) |
| 186 | 230 | 260 | 15 | > 1250 | – | – | – | – | – | – | – | – | [2H]C([2H])(c1ccccc1)N1C[C@@H](C)N(C(=O)NCc2ccccc2)[C@@H](C)c2ccncc21 (racemic) |
| 119 | 24 | 13 | 11 | 447 | – | – | – | – | – | – | – | – | COc1ccc(CNC(=O)N2[C@H](C)CN(Cc3ccc(C(F)(F)F)o3)c3cnccc3[C@@H]2C)cc1 (racemic) |
| > 1250 | 35 | 17 | 8 | > 1250 | < 1 | – | > 4.1 | – | – | – | 20 (≈ 50.1 µM) | 6 (≈ 15 µM) | C[C@@H]1CN(Cc2ccccc2)c2ccccc2[C@H](C)N1C(=O)NCc1ccccc1 (racemic) |
| 720 | 2670 | 875 | 243 | – | 248 | – | – | – | – | – | – | – | C[C@@H]1CN(CC2CCCCO2)c2ccccc2[C@H](C)N1C(=O)Nc1cccnc1 (mixture of isomers) |
| 83 | 240 | 107 | 133 | 500 | 177 (≈ 437 µM) | 60 | 3.3 | 53.8 | 3.8 to 4.7 | 0.9 | – | – | C[C@@H]1CN(Cc2ccccc2)c2cncc(F)c2[C@H](C)N1C(=O)Nc1cccnc1 (racemic) |
| > 1250 | 18 | 13 | 6 | – | – | – | – | – | – | – | – | – | C[C@@H]1CN(Cc2ccc(F)c(F)c2)c2ccccc2[C@H](C)N1C(=O)Nc1cccnc1 (racemic) |
| 1200 | 11 | 4 | 5 | – | – | – | – | – | – | – | – | – | C[C@@H]1CN(Cc2ccccc2F)c2ccccc2[C@H](C)N1C(=O)Nc1cccnc1 (racemic) |
| 531 | 104 | 57 | 281 | – | – | – | – | – | – | – | – | – | C[C@@H]1CN(Cc2ccccc2)c2nc(C(F)(F)F)ccc2[C@H](C)N1C(=O)NCc1ccccc1 (racemic) |
| 720 | 205 | 178 | 17 | – | – | – | – | – | – | – | – | – | C[C@@H]1CN(Cc2ccccc2)c2c(F)cccc2[C@H](C)N1C(=O)Nc1cccnc1 (racemic) |
| 907 | 225 | 196 | 25 | > 1250 | – | – | – | – | – | – | – | – | C[C@@H]1CN(Cc2ccccc2)c2cnccc2[C@H](C)N1C(=O)CCc1ccc(F)cc1 (racemic) |
| 649 | 1600 | 627 | 610 | – | – | – | – | – | – | – | – | – | COc1ccc2c(c1)N(Cc1ccccc1)C[C@@H](C)N(C(=O)Nc1cccnc1)[C@H]2C (racemic) |
| > 1250 | 55 | 34 | 6 | – | 21 to 39 (≈ 53.6 to 99.6 µM) | – | – | – | – | – | – | – | C[C@@H]1CN(Cc2ccccc2)c2ccccc2[C@H](C)N1C(=O)Cc1cncs1 (racemic) |
| 94 | 55 | 76 | 25 | 885 | 9 (≈ 21.9 µM) | 5.1 | 4 | 54.5 | 6.4 | 10.6 | – | – | COc1ccc(CNC(=O)N2[C@H](C)CN(CCC(C)C)c3cnccc3[C@@H]2C)cc1 (racemic) |
| > 1250 | 42 | 25 | 14 | – | – | – | – | – | – | – | – | – | C[C@@H]1CN(Cc2cccc(C(F)(F)F)n2)c2ccccc2[C@H](C)N1C(=O)NCc1ccccc1 (racemic) |
| 1000 | 36 | 16 | 22 | – | – | – | – | – | – | – | – | – | C[C@@H]1CN(Cc2ccccc2)c2nc(Cl)ccc2[C@H](C)N1C(=O)NCc1ccccc1 (racemic) |
| 412 | 62 | 29 | 13 | – | – | – | – | – | – | – | – | – | CC(C)CCN1C[C@@H](C)N(C(=O)CCc2cccnc2)[C@@H](C)c2ccccc21 (racemic) |
